Reference: patent publication US20190030114A1, “ISOFORM-SPECIFIC CALPAIN INHIBITORS, METHODS OF IDENTIFICATION, AND USES THEREOF” (WESTERN UNIVERSITY OF HEALTH SCIENCES, priority 2014, published 2019)

How the values were obtained:
retina (GCL, IPL, RGC) = assay: acute IOP elevation (acute angle closure glaucoma model), systemic (i.p.) C2l; assay type: in vivo, mice
Description: FIG. 11A: Calpain-2 inhibition reduces, while calpain-1 knockout exacerbates, cell death in the ganglion cell layer induced by acute IOP elevation. H&E staining of retinal sections from the right eye of vehicle- or C2l-injected wild-type and calpain-1 KO mice and the left eye where sham surgery was performed. Vehicle, 10% DMSO in PBS, was injected i.p. 30 min before and 2 h after acute IOP elevation. Pre- and post-injection C2l (0.3 mg/kg) was done i.p. 30 min before and 2 h after acute IOP elevation. For the One post injection group, C2l was injected 2 h after IOP elevation. For the Two post inj group, C2l was injected 2 and 4 h after IOP elevation. H&E staining was performed 3 days after surgery. Scale bar=30 μm.
Six sections cut through the optic disc of each eye were analyzed. Cell numbers in GCL at a distance between […] the optic disc were counted. Cell densities in 6 sections from each eye were averaged. Data represent means±S.E.M. n=7 for vehicle, n=3 for pre and post inj, n=10 for one post inj, n=6 for two post inj, n=4 for KO. ns, no significant difference. ***p<0.001, Two-tailed t-test.
FIG. 11C: Comparison of GCL cell survival rates from the right eye of vehicle- or C2l-injected wild-type and calpain-1 KO mice and the left eye where sham surgery was performed, as described in FIG. 11A. Survival rate for each mouse was calculated as the ratio of cell density in GCL of IOP-elevated eye to cell density in GCL of sham eye. *p<0.05, **p<0.01 versus vehicle, One-way ANOVA followed by Bonferroni test.
FIG. 11D: Brn-3a immunostaining in the retina of vehicle- or C2l-injected WT mice. Acute IOP elevation was performed on the right eye, while sham surgery was performed on the left eye. Vehicle, 10% DMSO, or C2l, C2l (0.3 mg/kg) was injected i.p. 2 h after acute IOP elevation. Brn3a staining was performed 3 days after surgery. Scale bar=60 μm.
FIG. 11E: Quantification of brn3a staining, as described in FIG. 11D. Brn3a-positive cells in GCL were counted. Data represents mean±S.E.M. n=4 for vehicle, n=5 for C2l. Ns, no significant difference, **p<0.01 sham versus IOP elevation, two-tailed t-test.
FIG. 11F: Comparison of survival rates. n=4 for vehicle, n=5 for C2l. **p<0.01 vehicle versus C2l, two-tailed t-test.
FIG. 11G: Representative immunoblots of PHLPP1 and STEP33 in retina tissue of WT, calpain-1 KO and C2l-injected mice collected 3 h after sham surgery or acute IOP elevation. C2l (0.3 mg/kg) was injected systemically 2 h after sham surgery or IOP elevation.
FIG. 11H: Quantitative analysis of the levels of PHLPP1 and STEP33 and ratios of pAkt/Akt for each group. Results represent means±S.E.M. of 4 experiments. *p<0.05, **p<0.01, ***p<0.001, ns no significant difference, One-way ANOVA followed by Bonferroni test.
Sequential activation of calpain-1 and calpain-2 in retina after acute IOP elevation. The following IOP elevation studies were performed using a model of acute angle closure glaucoma consisting of increasing intraocular pressure (IOP) to 110 mm Hg for 60 min by inserting a needle connected to an elevated reservoir of saline into the anterior chamber. This model reproduced several features of acute angle closure, including, ischemia of retina and iris as noted by absence of red reflex and pupillary response to light. Anterior chamber synechae, resulting in a narrow angle and adhesions between the iris and the cornea, increased cells and flare in the anterior chamber and increased corneal thickness due to corneal edema. Some of these changes persisted over 3 days of observation. Eyes were collected at 0, 2, 4 and 6 h after IOP elevation and retinal frozen sections were prepared and processed for immunohistochemistry with SBDP antibody. In WT mice, SBDP was clearly present in IPL at 2, 4 and 6 h after IOP elevation. However in calpain-1 KO mice, SBDP was only evident in the IPL at 4 and 6 h but not at 2 h (FIG. 10A and C). […]

calpain-1 = biological target: T1, calpain-1 (Homo sapiens, UniProt P07384); settings: Li et al, 1996; read-out: Ki for calpain-1 (μ-calpain), literature; cited from earlier work
T1 sequence (P07384 1-714): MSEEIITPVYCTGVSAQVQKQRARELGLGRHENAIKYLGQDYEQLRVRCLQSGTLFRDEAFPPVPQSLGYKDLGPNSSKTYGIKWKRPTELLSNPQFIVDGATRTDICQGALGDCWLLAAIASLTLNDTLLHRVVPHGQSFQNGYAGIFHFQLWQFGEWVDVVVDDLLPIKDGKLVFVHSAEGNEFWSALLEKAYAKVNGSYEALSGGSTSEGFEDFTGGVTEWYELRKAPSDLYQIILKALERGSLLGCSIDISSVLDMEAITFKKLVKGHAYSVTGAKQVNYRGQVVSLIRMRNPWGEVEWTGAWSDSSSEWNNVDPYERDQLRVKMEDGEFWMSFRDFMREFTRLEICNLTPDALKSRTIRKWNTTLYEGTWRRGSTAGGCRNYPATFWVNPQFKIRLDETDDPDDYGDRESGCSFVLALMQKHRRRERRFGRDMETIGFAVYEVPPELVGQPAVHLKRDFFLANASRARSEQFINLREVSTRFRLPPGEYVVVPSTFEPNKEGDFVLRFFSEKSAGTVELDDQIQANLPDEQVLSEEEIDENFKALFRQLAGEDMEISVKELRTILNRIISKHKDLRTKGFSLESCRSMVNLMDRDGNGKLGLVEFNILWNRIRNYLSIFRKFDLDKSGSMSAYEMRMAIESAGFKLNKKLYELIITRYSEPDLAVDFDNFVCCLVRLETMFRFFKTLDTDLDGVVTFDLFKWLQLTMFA
T1 sequence (P04632 1-268 partner): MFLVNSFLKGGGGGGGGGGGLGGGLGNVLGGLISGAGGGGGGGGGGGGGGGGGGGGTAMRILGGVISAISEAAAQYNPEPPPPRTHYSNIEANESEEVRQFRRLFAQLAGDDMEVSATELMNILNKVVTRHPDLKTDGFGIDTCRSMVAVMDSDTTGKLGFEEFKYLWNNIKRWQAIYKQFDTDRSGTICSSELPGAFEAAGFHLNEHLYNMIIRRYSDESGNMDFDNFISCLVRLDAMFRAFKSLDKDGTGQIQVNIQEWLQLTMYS

[1] = 0.3 mg/kg i.p. 30 min before and 2 h after IOP elevation (pre and post inj), 3 days, n=3
[2] = i.p. 2 and 4 h after IOP elevation (two post inj), n=6
[3] = i.p. 2 h after IOP elevation (one post inj), n=10

With `CCC(NC(=O)C(CC(C)C)NC(=O)OCc1ccccc1)C(=O)C(=O)NCc1cc(OC)cc(OC)c1` (racemic) [Formula 1, Z-Leu-Abu-CONH—CH2-C6H3 (3, 5-(OMe)2)] the “cell counts in GCL, IOP-elevated eye” value (retina (GCL, IPL, RGC); [1]) was 105.8±4.5 cells/mm, the “cell counts in GCL, sham eye” value (retina (GCL, IPL, RGC); [1]) was 125.1±10.5 cells/mm and the “SBDP signal in IPL at 4 and 6 h” value (retina (GCL, IPL, RGC); 0.3 mg/kg i.p. 2 h after IOP elevation, WT mice) was “significantly reduced”. For the same molecule, the “cell survival rate (cell count in IOP-elevated eye to sham eye) versus vehicle” value (retina (GCL, IPL, RGC); all three C2l injected groups) was “significantly increased”, the “cell counts in GCL, IOP-elevated eye” value (retina (GCL, IPL, RGC); [2]) was 96.1±6.3 cells/mm and the “cell counts in GCL, sham eye” value (retina (GCL, IPL, RGC); [2]) was 118.6±3.7 cells/mm. For the same molecule, the “cell counts in GCL, IOP-elevated eye” value (retina (GCL, IPL, RGC); [3]) was 86.4±7.0 cells/mm, the “cell counts in GCL, sham eye” value (retina (GCL, IPL, RGC); [3]) was 110.6±3.6 cells/mm and the “PTEN degradation at 4 and 6 h” value (retina (GCL, IPL, RGC); injected 2 h after IOP elevation, WT mice) was “completely blocked”. For the same molecule, the Ki (calpain-1) was 2300 nM.
